This is an account of results in patent publication US20230065740A1, “CYCLIN-DEPENDENT KINASE INHIBITORS” (SPV THERAPEUTICS INC., priority 2018, published 2023).

Assay [1] addresses T1, CDK2-CYCLINA (Homo sapiens, UniProt P24941).
T1 construct: purchased Millipore
In words: Microfluidic LabChip kinase inhibition assay, CDK2-CyclinA. It counts as biochemical. Particulars: 50 μM ATP.

The target in assay [2] is T2, CDK9-CYCLINT1 (Homo sapiens, UniProt P50750).
T2 construct: purchased Carna
In words: Microfluidic LabChip kinase inhibition assay, CDK9-CyclinT1. The class given is biochemical. Particulars: 10 μM ATP, read-out: CDK9 CyclinT1 IC50.

Assay [3] concerns the target CDK1/B (Homo sapiens, UniProt P06493). Kind of assay: Additional inhibition assay, CDK1/B. The class given is biochemical.
In assay [4] the target is CDK7 CyclinH (Homo sapiens, UniProt P50613). In words: Additional inhibition assay, CDK7 CyclinH. It counts as biochemical.
Chain of CDK7 CyclinH (P50613 whole entry): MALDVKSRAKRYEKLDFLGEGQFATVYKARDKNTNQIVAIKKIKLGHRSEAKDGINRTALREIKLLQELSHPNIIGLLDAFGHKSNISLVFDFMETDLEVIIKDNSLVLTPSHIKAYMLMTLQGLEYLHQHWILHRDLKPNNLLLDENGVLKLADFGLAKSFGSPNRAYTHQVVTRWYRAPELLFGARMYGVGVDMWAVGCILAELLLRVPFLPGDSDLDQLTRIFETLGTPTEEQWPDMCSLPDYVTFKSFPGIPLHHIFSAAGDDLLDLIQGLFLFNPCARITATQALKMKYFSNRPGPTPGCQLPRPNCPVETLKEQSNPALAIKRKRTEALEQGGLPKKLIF
Chain of CDK7 CyclinH (P51946 whole entry partner): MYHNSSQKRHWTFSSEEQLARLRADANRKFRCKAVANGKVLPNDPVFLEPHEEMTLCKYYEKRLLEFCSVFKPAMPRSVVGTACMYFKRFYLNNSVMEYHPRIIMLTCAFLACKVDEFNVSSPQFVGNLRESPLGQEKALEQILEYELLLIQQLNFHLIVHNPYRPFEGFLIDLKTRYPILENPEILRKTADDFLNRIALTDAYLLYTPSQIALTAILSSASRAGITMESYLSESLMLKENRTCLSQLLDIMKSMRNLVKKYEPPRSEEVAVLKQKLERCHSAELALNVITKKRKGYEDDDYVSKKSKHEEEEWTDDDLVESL
Chain of CDK7 CyclinH (P51948 whole entry partner): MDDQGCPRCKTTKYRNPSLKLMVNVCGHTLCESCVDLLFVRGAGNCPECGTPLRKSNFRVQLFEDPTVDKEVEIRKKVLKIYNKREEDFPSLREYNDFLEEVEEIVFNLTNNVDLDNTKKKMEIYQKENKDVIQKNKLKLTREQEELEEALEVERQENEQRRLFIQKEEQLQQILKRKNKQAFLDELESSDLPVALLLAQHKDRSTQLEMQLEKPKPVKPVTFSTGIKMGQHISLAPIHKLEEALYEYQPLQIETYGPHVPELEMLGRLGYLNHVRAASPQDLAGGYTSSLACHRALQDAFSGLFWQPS
The target of assay [5] is CDK4-CYCLIND1 (Homo sapiens, UniProt P11802). Kind of assay: Microfluidic LabChip kinase inhibition assay, CDK4-CyclinD1. Particulars: CDK4 CyclinD1 IC50 (μM), 200 μM ATP, second value in parentheses on the next line.
Chain of CDK4-CYCLIND1 (P11802 whole entry): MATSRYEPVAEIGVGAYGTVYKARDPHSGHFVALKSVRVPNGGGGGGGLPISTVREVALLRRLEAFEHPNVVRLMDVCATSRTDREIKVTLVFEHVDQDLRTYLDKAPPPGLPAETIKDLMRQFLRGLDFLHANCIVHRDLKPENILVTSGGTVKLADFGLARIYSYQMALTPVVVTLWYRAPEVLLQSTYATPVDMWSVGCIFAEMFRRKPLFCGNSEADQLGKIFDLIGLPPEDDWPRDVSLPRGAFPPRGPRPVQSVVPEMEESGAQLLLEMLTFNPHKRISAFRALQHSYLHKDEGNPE
Chain of CDK4-CYCLIND1 (P24385 whole entry partner): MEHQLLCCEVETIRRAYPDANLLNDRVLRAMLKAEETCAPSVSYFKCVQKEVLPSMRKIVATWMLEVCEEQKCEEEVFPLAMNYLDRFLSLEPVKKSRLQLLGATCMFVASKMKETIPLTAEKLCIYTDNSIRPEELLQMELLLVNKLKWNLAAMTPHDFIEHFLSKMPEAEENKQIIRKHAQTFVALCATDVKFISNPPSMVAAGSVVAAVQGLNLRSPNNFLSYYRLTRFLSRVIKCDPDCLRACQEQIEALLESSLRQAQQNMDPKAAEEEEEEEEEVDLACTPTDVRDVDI

Where two headings read alike, the source gives them in different places.

A word on the IC50: it is the concentration at which inhibition is half-maximal.

T2 sequence (P50750 whole entry): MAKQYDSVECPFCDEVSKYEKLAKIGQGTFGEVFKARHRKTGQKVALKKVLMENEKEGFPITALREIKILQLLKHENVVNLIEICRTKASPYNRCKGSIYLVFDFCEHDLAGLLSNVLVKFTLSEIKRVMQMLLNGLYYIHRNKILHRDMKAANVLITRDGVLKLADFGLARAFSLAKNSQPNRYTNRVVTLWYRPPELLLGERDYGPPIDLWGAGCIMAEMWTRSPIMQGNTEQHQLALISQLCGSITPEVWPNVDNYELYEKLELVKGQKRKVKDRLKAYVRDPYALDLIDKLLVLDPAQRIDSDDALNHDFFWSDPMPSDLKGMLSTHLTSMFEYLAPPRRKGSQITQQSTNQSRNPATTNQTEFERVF
T2 sequence (O60563 whole entry partner): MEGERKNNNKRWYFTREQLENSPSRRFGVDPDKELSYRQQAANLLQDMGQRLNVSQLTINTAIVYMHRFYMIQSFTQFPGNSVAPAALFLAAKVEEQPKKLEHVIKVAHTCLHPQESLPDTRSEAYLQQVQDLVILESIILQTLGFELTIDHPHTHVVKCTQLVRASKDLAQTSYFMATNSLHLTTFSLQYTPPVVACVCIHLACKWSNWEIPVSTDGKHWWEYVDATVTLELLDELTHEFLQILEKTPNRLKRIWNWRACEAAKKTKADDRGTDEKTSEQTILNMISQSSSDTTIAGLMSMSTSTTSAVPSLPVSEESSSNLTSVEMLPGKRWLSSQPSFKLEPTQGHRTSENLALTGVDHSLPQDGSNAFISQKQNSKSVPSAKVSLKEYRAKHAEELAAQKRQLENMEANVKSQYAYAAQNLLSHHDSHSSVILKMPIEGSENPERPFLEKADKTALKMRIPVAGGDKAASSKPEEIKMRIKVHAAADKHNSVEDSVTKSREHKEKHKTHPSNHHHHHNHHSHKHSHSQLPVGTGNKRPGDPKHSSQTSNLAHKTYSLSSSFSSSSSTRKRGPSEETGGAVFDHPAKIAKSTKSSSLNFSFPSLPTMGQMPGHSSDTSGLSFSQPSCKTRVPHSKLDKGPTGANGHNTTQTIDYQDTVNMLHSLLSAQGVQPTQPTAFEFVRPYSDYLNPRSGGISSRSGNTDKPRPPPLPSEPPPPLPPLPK
Chain of CDK1/B (P06493 whole entry): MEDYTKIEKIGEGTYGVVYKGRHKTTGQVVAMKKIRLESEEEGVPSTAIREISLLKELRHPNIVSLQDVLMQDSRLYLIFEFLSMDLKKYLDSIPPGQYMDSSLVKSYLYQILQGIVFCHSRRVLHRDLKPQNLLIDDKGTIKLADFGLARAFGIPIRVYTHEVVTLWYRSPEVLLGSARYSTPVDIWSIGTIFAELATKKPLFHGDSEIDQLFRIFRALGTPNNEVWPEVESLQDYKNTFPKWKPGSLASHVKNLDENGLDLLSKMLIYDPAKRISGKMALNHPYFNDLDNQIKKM
Chain of CDK1/B (P14635 whole entry partner): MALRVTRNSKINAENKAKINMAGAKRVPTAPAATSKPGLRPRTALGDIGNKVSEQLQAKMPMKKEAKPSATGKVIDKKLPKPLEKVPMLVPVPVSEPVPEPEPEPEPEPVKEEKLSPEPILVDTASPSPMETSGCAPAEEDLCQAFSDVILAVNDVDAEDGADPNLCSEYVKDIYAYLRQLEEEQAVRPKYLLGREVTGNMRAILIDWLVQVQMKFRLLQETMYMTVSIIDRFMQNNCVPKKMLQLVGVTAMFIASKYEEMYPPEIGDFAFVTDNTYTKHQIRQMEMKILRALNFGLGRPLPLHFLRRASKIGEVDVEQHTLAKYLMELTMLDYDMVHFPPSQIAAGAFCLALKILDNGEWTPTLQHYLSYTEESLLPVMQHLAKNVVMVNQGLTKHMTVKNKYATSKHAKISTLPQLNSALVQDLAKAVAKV

`CN1CC2(C1)CN(c1ccc(Nc3ncc4c(n3)N(C3CCCC3)C3(CC(=O)NC3=O)C4)cc1F)C2` (stereo not shown) [Compound C149, 7′-cyclopentyl-2′-((3-fluoro-4-(6-methyl-2,6-diazaspiro[3.3]heptan-2-yl)phenyl)amino)-5′,7′-dihydrospiro[pyrrolidine-3,6′-pyrrolo[2,3-d]pyrimidine]-2,5-dione]: the IC50 in assay [1] (Table 3a) was above 10000 nM; in assay [1] (Table 3b) it was above 10000 nM; in assay [2] (Table 3a), 85.2 nM; in assay [3] (Table 3a) it was above 10000 nM; in assay [3] (Table 3b), above 10000 nM; in assay [4] (Table 3a), above 10000 nM. Also, the concentration for half-maximal inhibition (IC50) in assay [4] (Table 3b) was above 10000 nM; in assay [5] (Table 3a), 0.593 µM; in assay [5] (Table 3b), 0.593 µM.

As to `CC(C)N1CC2(CN(c3ccc(Nc4ncc5c(n4)N(C4CCCC4)C4(CC(=O)NC4=O)C5)cc3)C2)C1` (stereo not shown) [Compound C150, 7′-cyclopentyl-2′-((4-(6-isopropyl-2,6-diazaspiro[3.3]heptan-2-yl)phenyl)amino)-5′,7′-dihydrospiro[pyrrolidine-3,6′-pyrrolo[2,3-d]pyrimidine]-2,5-dione], the half-inhibitory concentration (IC50) in assay [1] (Table 3a) is above 10000 nM; in assay [1] (Table 3b), above 10000 nM; in assay [2] (Table 3a), 270 nM; in assay [3] (Table 3a), above 10000 nM; in assay [3] (Table 3b), above 10000 nM; in assay [4] (Table 3a), above 10000 nM. The IC50 in assay [4] (Table 3b) was above 10000 nM; in assay [5] (Table 3a), 0.522 µM; in assay [5] (Table 3b), 0.522 µM.

Regarding `CN1CCC(c2ccc(Nc3ncc4c(n3)N(C3CCCC3)C3(CCNC3=O)C4)cc2)CC1` (stereo not shown) [Compound C164, 7′-cyclopentyl-2′-((4-(1-methylpiperidin-4-yl)phenyl)amino)-5′,7′-dihydrospiro[pyrrolidine-3,6′-pyrrolo[2,3-d]pyrimidin]-2-one], the 50% inhibitory concentration (IC50) in assay [1] (Table 3a) is above 10000 nM; in assay [1] (Table 3b), above 10000 nM; in assay [2] (Table 3a) it was 117 nM; in assay [3] (Table 3a), above 10000 nM; in assay [3] (Table 3b), above 10000 nM; in assay [4] (Table 3a), above 10000 nM. The figures for the IC50 in assay [4] (Table 3b), in assay [5] (Table 3a) and in assay [5] (Table 3b) were above 10000 nM, 0.167 µM and 0.167 µM, respectively.

In the case of `O=C1NCCC12Cc1cnc(Nc3ccc(OCCN4CCOCC4)cc3)nc1N2C1CCCC1` (stereo not shown) [Compound C165, 7′-cyclopentyl-2′-((4-(2-morpholinoethoxy)phenyl)amino)-5′,7′-dihydrospiro[pyrrolidine-3,6′-pyrrolo[2,3-d]pyrimidin]-2-one], the half-maximal inhibitory concentration (IC50) in assay [1] (Table 3a) was above 10000 nM; in assay [1] (Table 3b) it was above 10000 nM; in assay [2] (Table 3a), 91.4 nM; in assay [3] (Table 3a), above 10000 nM; in assay [3] (Table 3b) it was above 10000 nM; in assay [4] (Table 3a), above 10000 nM. Moreover, the IC50 was above 10000 nM in assay [4] (Table 3b), 0.702 µM in assay [5] (Table 3a) and 0.702 µM in assay [5] (Table 3b).

As for `Cn1cc(-c2ccc(Nc3ncc4c(n3)N(C3CCCC3)C3(CCNC3=O)C4)cc2)cn1` (stereo not shown) [Compound C168, 7′-cyclopentyl-2′-((4-(1-methyl-1H-pyrazol-4-yl)phenyl)amino)-5′,7′-dihydrospiro[pyrrolidine-3,6′-pyrrolo[2,3-d]pyrimidin]-2-one], the half-inhibitory concentration (IC50) in assay [1] (Table 3a) was above 10000 nM; in assay [1] (Table 3b) it was above 10000 nM; in assay [2] (Table 3a) it was 23.1 nM; in assay [3] (Table 3a), above 10000 nM; in assay [3] (Table 3b), above 10000 nM; in assay [4] (Table 3a), above 10000 nM. The results for the IC50 in assay [4] (Table 3b), in assay [5] (Table 3a) and in assay [5] (Table 3b) were above 10000 nM, 1.31 µM and 1.31 µM, respectively.

`O=C1NCCC12Cc1cnc(Nc3ccc(OCCN4CCCC4)nc3)nc1N2C1CCCC1` (stereo not shown) [Compound C170, 7′-cyclopentyl-2′-((6-(2-(pyrrolidin-1-yl)ethoxy)pyridin-3-yl)amino)-5′,7′-dihydrospiro[pyrrolidine-3,6′-pyrrolo[2,3-d]pyrimidin]-2-one]: the concentration for half-maximal inhibition (IC50) was above 10000 nM in assay [1] (Table 3a); above 10000 nM in assay [1] (Table 3b); 28.2 nM in assay [2] (Table 3a); above 10000 nM in assay [3] (Table 3a); above 10000 nM in assay [3] (Table 3b); above 10000 nM in assay [4] (Table 3a). The IC50 in assay [4] (Table 3b) is above 10000 nM; in assay [5] (Table 3a), 0.233 µM; in assay [5] (Table 3b), 0.233 µM.

For the compound `CN(C)[C@H]1CCN(c2ccc(Nc3ncc4c(n3)N(C3CCCC3)C3(CCNC3=O)C4)cc2F)C1` (stereo partly drawn) [Compound C173, 7′-cyclopentyl-2′-((4-((S)-3-(dimethylamino)pyrrolidin-1-yl)-3-fluorophenyl)amino)-5′,7′-dihydrospiro[pyrrolidine-3,6′-pyrrolo[2,3-d]pyrimidin]-2-one], the 50% inhibitory concentration (IC50) was above 10000 nM in assay [1] (Table 3a); above 10000 nM in assay [1] (Table 3b); 33.6 nM in assay [2] (Table 3a); 8410 nM in assay [3] (Table 3a); 8410 nM in assay [3] (Table 3b); above 10000 nM in assay [4] (Table 3a). Also, the IC50 in assay [4] (Table 3b) was above 10000 nM; in assay [5] (Table 3a) it was 0.109 µM; in assay [5] (Table 3b), 0.109 µM.

In the case of `CN(C)[C@@H]1CCN(c2ccc(Nc3ncc4c(n3)N(C3CCCC3)C3(CCNC3=O)C4)cc2F)C1` (stereo partly drawn) [Compound C176, 7′-cyclopentyl-2′-((4-((R)-3-(dimethylamino)pyrrolidin-1-yl)-3-fluorophenyl)amino)-5′,7′-dihydrospiro[pyrrolidine-3,6′-pyrrolo[2,3-d]pyrimidin]-2-one], the IC50 was above 10000 nM in assay [1] (Table 3a); above 10000 nM in assay [1] (Table 3b); 27 nM in assay [2] (Table 3a); 7580 nM in assay [3] (Table 3a); 7580 nM in assay [3] (Table 3b); above 10000 nM in assay [4] (Table 3a). Also, the IC50 in assay [4] (Table 3b) is above 10000 nM; in assay [5] (Table 3a) it was 0.142 µM; in assay [5] (Table 3b), 0.142 µM.

For `CN(C)[C@H]1CCN(C(=O)c2ccc(Nc3ncc4c(n3)N(C3CCCC3)C3(CCNC3=O)C4)cc2)C1` (stereo partly drawn) [Compound C178, 7′-cyclopentyl-2′-((4-((S)-3-(dimethylamino)pyrrolidine-1-carbonyl)phenyl)amino)-5′,7′-dihydrospiro[pyrrolidine-3,6′-pyrrolo[2,3-d]pyrimidin]-2-one], the 50% inhibitory concentration (IC50) was 681 nM in assay [1] (Table 3a); 681 nM in assay [1] (Table 3b); 8.65 nM in assay [2] (Table 3a); 1050 nM in assay [3] (Table 3a); 1050 nM in assay [3] (Table 3b); above 10000 nM in assay [4] (Table 3a). The half-inhibitory concentration (IC50) in assay [4] (Table 3b) is above 10000 nM; in assay [5] (Table 3a) it was 0.0453 µM; in assay [5] (Table 3b) it was 0.0453 µM.

As to `CN(C)[C@@H]1CCN(C(=O)c2ccc(Nc3ncc4c(n3)N(C3CCCC3)C3(CCNC3=O)C4)cc2)C1` (stereo partly drawn) [Compound C181, 7′-cyclopentyl-2′-((4-((R)-3-(dimethylamino)pyrrolidine-1-carbonyl)phenyl)amino)-5′,7′-dihydrospiro[pyrrolidine-3,6′-pyrrolo[2,3-d]pyrimidin]-2-one], the IC50 in assay [1] (Table 3a) is 1940 nM; in assay [1] (Table 3b) it was 1940 nM; in assay [2] (Table 3a) it was 60.2 nM; in assay [3] (Table 3a) it was 3550 nM; in assay [3] (Table 3b), 3550 nM; in assay [4] (Table 3a) it was above 10000 nM. In addition, the IC50 in assay [4] (Table 3b) is above 10000 nM; in assay [5] (Table 3a), 0.0679 µM; in assay [5] (Table 3b), 0.0679 µM.

Take `CC1CN(c2ccc(Nc3ncc4c(n3)N(C3CCCC3)C3(CCNC3=O)C4)cc2)CC(C)N1` (stereo not shown) [Compound C207, 7′-cyclopentyl-2′-((4-(3,5-dimethylpiperazin-1-yl)phenyl)amino)-5′,7′-dihydrospiro[pyrrolidine-3,6′-pyrrolo[2,3-d]pyrimidin]-2-one]: the 50% inhibitory concentration (IC50) was 9570 nM in assay [1] (Table 3a); 9570 nM in assay [1] (Table 3b); 148 nM in assay [2] (Table 3a); above 10000 nM in assay [3] (Table 3a); above 10000 nM in assay [3] (Table 3b); above 10000 nM in assay [4] (Table 3a). For the same compound, the IC50 was above 10000 nM in assay [4] (Table 3b), 0.341 µM in assay [5] (Table 3a) and 0.341 µM in assay [5] (Table 3b).

`CC1CN(c2ccc(Nc3ncc4c(n3)N(C3CCCC3)C3(CC(=O)NC3=O)C4)cc2)CC(C)N1` (stereo not shown) [Compound C208, 7′-cyclopentyl-2′-((4-(3,5-dimethylpiperazin-1-yl)phenyl)amino)-5′,7′-dihydrospiro[pyrrolidine-3,6′-pyrrolo[2,3-d]pyrimidine]-2,5-dione]: the 50% inhibitory concentration (IC50) in assay [1] (Table 3a) is 2280 nM; in assay [1] (Table 3b) it was 2280 nM; in assay [2] (Table 3a), 79.9 nM; in assay [3] (Table 3a) it was 2020 nM; in assay [3] (Table 3b) it was 2020 nM; in assay [4] (Table 3a), above 10000 nM. The IC50 in assay [4] (Table 3b) was above 10000 nM; in assay [5] (Table 3a) it was 0.0668 µM; in assay [5] (Table 3b), 0.0668 µM.

For `CC(C)c1ccc(Nc2ncc3c(n2)N(C2CCCC2)C2(CCNC2=O)C3)cc1` (stereo not shown) [Compound C209, 7′-cyclopentyl-2′-((4-isopropylphenyl)amino)-5′,7′-dihydrospiro[pyrrolidine-3,6′-pyrrolo[2,3-d]pyrimidin]-2-one], the IC50 was 5010 nM in assay [1] (Table 3a); 5010 nM in assay [1] (Table 3b); 153 nM in assay [2] (Table 3a); above 10000 nM in assay [3] (Table 3a); above 10000 nM in assay [3] (Table 3b); above 10000 nM in assay [4] (Table 3a). Further, the 50% inhibitory concentration (IC50) was above 10000 nM in assay [4] (Table 3b), 1.38 µM in assay [5] (Table 3a) and 1.38 µM in assay [5] (Table 3b).

`CN(C)CCOc1ccc(Nc2ncc3c(n2)N(C2CCCC2)C2(CCNC2=O)C3)nc1` (stereo not shown) [Compound C210, 7′-cyclopentyl-2′-((5-(2-(dimethylamino)ethoxy)pyridin-2-yl)amino)-5′,7′-dihydrospiro[pyrrolidine-3,6′-pyrrolo[2,3-d]pyrimidin]-2-one]: the IC50 in assay [1] (Table 3a), in assay [1] (Table 3b), in assay [2] (Table 3a), in assay [2] (Table 3b), in assay [3] (Table 3a) and in assay [3] (Table 3b) was above 10000 nM in each case. Further, the IC50 is above 10000 nM in assay [4] (Table 3a), above 10000 nM in assay [4] (Table 3b), 3.96 µM in assay [5] (Table 3a) and 3.96 µM in assay [5] (Table 3b).
